In brackets after ≈: the same amount, converted by molar mass.
Experiments:
[1] = system: SD rats, shock related to skin burn; test: Treatment action for shock related to skin burn (Embodiment A8); type: in vivo; details: 2.4 mg/kg venous injection half hour after burning; control 7.0±2.6 hours
[2] = system: shock caused by bleeding in rats; details: versus equal dose of comparators; cited from earlier work
[3] = system: dogs in hemorrhagic shock; test: Treatment effect of polydatin drug compositions to dogs in hemorrhagic shock (Embodiment 20); type: in vivo, Beagle dogs; details: for survival rate: 168 hours
[4] = Polydatin solutions prepared by conventional methods (high pH, heating, tween 80); type: physicochemical
From the text: It is widely known by technicians in the field that clinic solutions require pH4.0˜9.0. Obviously, it is hard to prepare polydatin water solution of effective concentration by adjusting pH only. Furthermore, the polydatin has bad stability in solutions of high pH, so the clinic application of the polydatin drug composition preparations of high pH will be further limited. The described document No. 19 adopts heating to dissolve to obtain polydatin drug compositions. According to the experiment, the solutions obtained by heating to dissolve precipitate solute as the temperature reduces, and the polydatin concentrations in the solutions are lower than 0.5 mg/ml after indoor temperature balancing. Obviously, the method is not suitable in preparing officinal medicine preparations. China Patent Application 02134928.2 describes a method of preparing polydatin solutions for injection by adopting adjusting pH and/or adding surfactants (tween 80). […] Furthermore, the prior documents indicate that preparations of administration in vein should be avoided to use as possible because tween surfactants have potential hemolytic and antihypertensive activity. (Zhuangyue etc., applied drug preparation technique, People's medical publishing house 1999:p417)

[5] = Effect of pH to solubility of polydatin (Embodiment 12); type: physicochemical; details: for solubility at 8 h: deionized water of adjusted pH, thermodynamic from solid, water, room temperature
Protocol: • 1. Materials: Deionized water, […] industry city; sodium hydroxide, Dongguan dongjiang chemical reagent co., ltd.; hydrochloric acid, Dongguan dongjiang chemical reagent co., ltd. • 2. Method: Regulating deionized water into pH of 5.0˜12.0 with 0.2N sodium hydroxide and 0.2N hydrochloric acid. Measuring precisely 20 ml each of above solutions, adding polydatin of proper amount respectively, treating with ultrasonic for 20 min under 40° C., supersaturating the solution, placing for 8 h under room temperature, filtering with 0.45 μm microporous membrane, wherein the filtrates are saturated solutions of polydatin in water solutions of different pHs. Adopting HPLC method to determine content of polydatin in the filtrates and calculate solubility of polydatin referring to document 20 (Wuye etc., determination content of resveratrol glycoside and tangerine peel glycoside in qing dan capsule with HPLC method, Chinese traditional patent medicine, 1999, 21(5): 226). • 3.

[6] = Solubility of polydatin in propanediol-water solution (Embodiment 14); type: physicochemical; details: for solubility at 8 h: thermodynamic from solid, room temperature
Protocol: Materials: 1,2-propanediol, analytically pure, Guangzhou No. 2 chemical reagent factory; purified water, […] industry city. Method: Preparing propanediol water solutions having concentration of at least 20%(v/v) with propanediol and purified water. Precisely measuring propanediol and 20 ml propanediol water solution of each above concentration, adding polydatin of proper amount respectively, treating with ultrasonic for 20 min under 40° C., supersaturating the solution, placing for 8 h under room temperature, filtering with 0.45 μm microporous membrane, wherein the filtrates are saturated solutions of polydatin in propanediol water solutions of different concentration. Adopting HPLC method to determine content of polydatin in the filtrates and calculate solubility of polydatin referring to document 20.

[7] = system: SD rats, shock related to blood loss; test: Treatment action for shock related to blood loss (Embodiment A7)
[8] = Solubility of polydatin in alcohol-water solution and normal saline (Embodiment 13); type: physicochemical; details: room temperature; for solubility at 8 h: thermodynamic from solid
Protocol: • 1. Materials: Anhydrous alcohol, analytically pure, Guangzhou No.2 chemical reagent factory; purified water, […] industry city; 0.9% sodium chloride injection, batch number C040514-092, Sichuan kelun pharmaceutical co., ltd. • 2. Method: Preparing alcohol water solutions having concentration of 15%, […] 30%, 40%, 50%, 60%, 70%, 80%, 90%, 95%(v/v) with anhydrous alcohol and purified water. Precisely Measuring water, anhydrous alcohol, 0.9% sodium chloride injection (normal saline) and 20 ml alcohol water solution of each above concentration, adding polydatin of proper amount respectively, treating with ultrasonic for 20 min under 40 □, supersaturating the solution, placing for 8 h under room temperature, filtering with 0.45 μm microporous membrane, wherein the filtrates are saturated solutions of polydatin in alcohol water solutions of different concentration. Adopting HPLC method to determine content of polydatin in the filtrates and calculate solubility of polydatin referring to document 20. • 3. Result: […]

In the case of OCC1OC(Oc2cc(O)cc(/C=C/c3ccc(O)cc3)c2)C(O)C(O)C1O [polydatin, 3,4′,5-trihydroxy-trans stilbene-3-β-D-glucoside], the average survival period [1] is given as over 13.3 h, the “treatment effect to shock caused by bleeding” value [2] is given as “better than that of using an equal dose of Dopamine and Anisodamine hydrobromide” and the survival rate ([3]; 1.8 mg/kg) is given as 3 number/5. For the same compound, the survival rate ([3]; 3.0 mg/kg) was 4 number/5, the survival rate ([3]; 5.0 mg/kg) was 4 number/5 and the “average arterial pressure (FIG. 1)” value ([3]; high dose 5.0 mg/kg, compared with blank control and dopamine groups) was “can maintain blood pressure of dogs after acute hemorrhage”. For the same compound, the “sensitivity of polydatin (solution)” value [4] was “sensitive to temperature and light”, the “polydatin concentration in solutions obtained by heating to dissolve” value ([4]; after indoor temperature balancing) was “lower than 0.5 mg/ml” and the “stability in solutions of high pH” value ([4]; high pH) was “bad stability”. The “cold preservation of polydatin drug composition” value ([4]; tween 80 of 0.5%, pH8.5, concentration 4 mg/ml, 4° C.) was “can not be cold preserved”, the “pH of the solution needed to obtain polydatin water solution” value ([5]; concentration above 3 mg/ml) was “above 12” and the solubility at 8 h ([5]; pH 5, aqueous buffer, pH of solvent 5.0) was under 0.5 mg/mL. For the same compound, the solubility at 8 h ([5]; pH 6, aqueous buffer, pH of solvent 6.0) was under 0.5 mg/mL, the solubility at 8 h ([5]; pH 7, aqueous buffer, pH of solvent 7.0) was under 0.5 mg/mL and the solubility at 8 h ([5]; pH 8, aqueous buffer, pH of solvent 8.0) was under 0.5 mg/mL. The solubility at 8 h ([5]; pH 9, aqueous buffer, pH of solvent 9.0) was under 0.5 mg/mL, the solubility at 8 h ([5]; pH 10, aqueous buffer, pH of solvent 10.0) was under 0.5 mg/mL and the solubility at 8 h ([5]; pH 11, aqueous buffer, pH of solvent 11.0) was 0.7 mg/mL (≈ 1.79 mM). For the same compound, the solubility at 8 h ([5]; pH 12, aqueous buffer, pH of solvent 12.0) was about 5 mg/mL (≈ 12.8 mM), the “pH of final solution” value ([5]; pH of solvent 12) was “about 10” and the “pH of the final solution” value ([5]; polydatin water solution of concentration above 3 mg/ml) was “above 10”. For the same compound, the solubility at 8 h ([6]; 1,2-propanediol, organic solvent or mixture, content of propanediol 100% (propanediol)) was about 60 mg/mL (≈ 154 mM), the “stability of the solution” value ([6]; 20% propanediol water solution, about 3.5 mg/ml) was “precipitates solute of polydatin after placing for 12 h” and the solubility at 8 h ([6]; propanediol-water solution, aqueous with cosolvent or surfactant or cyclodextrin, content of propanediol 20% (v/v) in water) was about 3.5 mg/mL (≈ 8.97 mM). The solubility at 8 h ([6]; propanediol-water solution, aqueous with cosolvent or surfactant or cyclodextrin, content of propanediol 35% (v/v) in water) was 4.9 mg/mL (≈ 12.6 mM), the solubility at 8 h ([6]; propanediol-water solution, aqueous with cosolvent or surfactant or cyclodextrin, content of propanediol 50% (v/v) in water) was 24.4 mg/mL (≈ 62.5 mM) and the solubility at 8 h ([6]; propanediol-water solution, aqueous with cosolvent or surfactant or cyclodextrin, content of propanediol 65% (v/v) in water) was 28.3 mg/mL (≈ 72.5 mM). For the same compound, the solubility at 8 h ([6]; propanediol-water solution, aqueous with cosolvent or surfactant or cyclodextrin, content of propanediol 80% (v/v) in water) was 33.6 mg/mL (≈ 86.1 mM), the “fraction of the treatment group with survival period of 24 hours” value ([7]; 2.4 mg/kg through femoral vein) was 9/10 and the “fraction of the treatment group with survival period of 48 hours” value ([7]; 2.4 mg/kg through femoral vein) was 8/10. The “fraction of the treatment group with survival period of 72 hours” value ([7]; 2.4 mg/kg through femoral vein) was 6/10, the “ratio of the survival time of the treatment group and the control group” value ([7]; 2.4 mg/kg through femoral vein, 1 hour after shock) was over 5.5 and the arterial pressure ([7]; after 30 minutes of medication, 2.4 mg/kg, 5.3+0.2 kPa after shock for 1 hour) was 8.6+0.8 kPa. For the same compound, the “increase of diameter of micro blood vessel” value ([7]; after medication, 2.4 mg/kg, diameter reduced to 63.3% by shock) was 20.3%, the solubility at 8 h ([8]; alcohol-water solution, aqueous with cosolvent or surfactant or cyclodextrin, alcohol water solution 50%~95% (v/v)) was over 20 mg/mL and the solubility at 8 h ([8]; alcohol-water solution, aqueous with cosolvent or surfactant or cyclodextrin, content of alcohol 15% (v/v) in water) was about 1 mg/mL (≈ 2.56 mM). It also gave a solubility at 8 h ([8]; alcohol-water solution, aqueous with cosolvent or surfactant or cyclodextrin, content of alcohol 30% (v/v) in water) of about 6 mg/mL (≈ 15.4 mM), a solubility at 8 h ([8]; alcohol-water solution, aqueous with cosolvent or surfactant or cyclodextrin, content of alcohol 40% (v/v) in water) of 9.2 mg/mL (≈ 23.6 mM) and a solubility at 8 h ([8]; alcohol-water solution, aqueous with cosolvent or surfactant or cyclodextrin, content of alcohol 50% (v/v) in water) of about 25 mg/mL (≈ 64 mM). For the same compound, the solubility at 8 h ([8]; alcohol-water solution, aqueous with cosolvent or surfactant or cyclodextrin, content of alcohol 60% (v/v) in water) was about 42 mg/mL (≈ 108 mM), the solubility at 8 h ([8]; alcohol-water solution, aqueous with cosolvent or surfactant or cyclodextrin, content of alcohol 70% (v/v) in water) was about 80 mg/mL (≈ 205 mM) and the solubility at 8 h ([8]; alcohol-water solution, aqueous with cosolvent or surfactant or cyclodextrin, content of alcohol 80% (v/v) in water) was 76.8 mg/mL (≈ 197 mM). The solubility at 8 h ([8]; alcohol-water solution, aqueous with cosolvent or surfactant or cyclodextrin, content of alcohol 90% (v/v) in water) was about 75 mg/mL (≈ 192 mM), the solubility at 8 h ([8]; alcohol-water solution, aqueous with cosolvent or surfactant or cyclodextrin, content of alcohol 95% (v/v) in water) was 30.7 mg/mL (≈ 78.6 mM) and the solubility at 8 h ([8]; anhydrous alcohol, organic solvent or mixture, content of alcohol 100% (anhydrous alcohol)) was about 20 mg/mL (≈ 51.2 mM). It also gave a solubility ([8]; content of alcohol 70% (v/v) in water) of 80.9 mg/mL (≈ 207 mM), a solubility at 8 h ([8]; normal saline, saline or isotonic, normal saline (0.9% sodium chloride injection)) of under 0.5 mg/mL and a solubility at 8 h ([8]; purified water, water, content of alcohol 0% (purified water)) of under 0.5 mg/mL.

From patent US20080261902A1, “Pharmaceutical composition containing polydatin and its application” (Shenzhen Neptunus Pharmaceutical Co., Ltd., priority 2005, published 2008)
